Measurements published in ChEMBL document CHEMBL5653615 (J Biol Chem, 2013).
Each block holds one molecule with its values, some of them ahead of it.

Tests used:
[1] = target: Homeodomain-interacting protein kinase 2 (Homo sapiens) (UniProt Q9H2X6); assay: Inhibition of human HIPK2 at 18.6 nM by HotSpot assay relative to control
[2] = target: T1, Tyrosine-protein kinase Mer (Homo sapiens) (UniProt Q12866); assay: Inhibition of human c-MER at 18.6 nM by HotSpot assay relative to control
T1 sequence (whole entry): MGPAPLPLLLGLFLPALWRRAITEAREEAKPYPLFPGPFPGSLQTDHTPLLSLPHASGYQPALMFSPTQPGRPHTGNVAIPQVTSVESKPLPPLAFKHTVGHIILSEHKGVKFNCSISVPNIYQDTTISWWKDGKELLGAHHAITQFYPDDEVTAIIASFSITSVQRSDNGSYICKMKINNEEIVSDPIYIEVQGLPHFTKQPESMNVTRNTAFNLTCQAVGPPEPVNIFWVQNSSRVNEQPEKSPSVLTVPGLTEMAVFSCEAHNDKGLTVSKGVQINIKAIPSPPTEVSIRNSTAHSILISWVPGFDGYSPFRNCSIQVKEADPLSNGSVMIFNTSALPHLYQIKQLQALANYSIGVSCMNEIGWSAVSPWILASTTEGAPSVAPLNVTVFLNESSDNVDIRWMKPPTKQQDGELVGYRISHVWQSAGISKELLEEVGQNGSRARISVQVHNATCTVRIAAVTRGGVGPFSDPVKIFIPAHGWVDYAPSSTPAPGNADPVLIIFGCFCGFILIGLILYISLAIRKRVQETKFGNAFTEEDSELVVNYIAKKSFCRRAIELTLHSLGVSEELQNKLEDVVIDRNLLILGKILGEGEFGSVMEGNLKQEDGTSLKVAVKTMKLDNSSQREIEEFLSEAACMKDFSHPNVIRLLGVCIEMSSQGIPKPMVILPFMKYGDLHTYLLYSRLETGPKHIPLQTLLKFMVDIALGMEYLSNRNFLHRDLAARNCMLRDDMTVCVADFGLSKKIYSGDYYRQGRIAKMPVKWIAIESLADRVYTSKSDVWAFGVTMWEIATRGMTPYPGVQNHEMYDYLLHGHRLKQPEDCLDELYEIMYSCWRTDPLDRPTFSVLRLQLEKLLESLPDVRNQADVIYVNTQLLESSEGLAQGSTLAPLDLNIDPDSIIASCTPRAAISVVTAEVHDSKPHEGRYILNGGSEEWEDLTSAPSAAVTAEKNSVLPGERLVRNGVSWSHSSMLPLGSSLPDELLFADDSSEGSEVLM

[3] = target: T2, Cytoplasmic tyrosine-protein kinase BMX (Homo sapiens) (UniProt P51813); assay: Inhibition of human BMX at 18.6 nM by HotSpot assay relative to control
T2 sequence (whole entry): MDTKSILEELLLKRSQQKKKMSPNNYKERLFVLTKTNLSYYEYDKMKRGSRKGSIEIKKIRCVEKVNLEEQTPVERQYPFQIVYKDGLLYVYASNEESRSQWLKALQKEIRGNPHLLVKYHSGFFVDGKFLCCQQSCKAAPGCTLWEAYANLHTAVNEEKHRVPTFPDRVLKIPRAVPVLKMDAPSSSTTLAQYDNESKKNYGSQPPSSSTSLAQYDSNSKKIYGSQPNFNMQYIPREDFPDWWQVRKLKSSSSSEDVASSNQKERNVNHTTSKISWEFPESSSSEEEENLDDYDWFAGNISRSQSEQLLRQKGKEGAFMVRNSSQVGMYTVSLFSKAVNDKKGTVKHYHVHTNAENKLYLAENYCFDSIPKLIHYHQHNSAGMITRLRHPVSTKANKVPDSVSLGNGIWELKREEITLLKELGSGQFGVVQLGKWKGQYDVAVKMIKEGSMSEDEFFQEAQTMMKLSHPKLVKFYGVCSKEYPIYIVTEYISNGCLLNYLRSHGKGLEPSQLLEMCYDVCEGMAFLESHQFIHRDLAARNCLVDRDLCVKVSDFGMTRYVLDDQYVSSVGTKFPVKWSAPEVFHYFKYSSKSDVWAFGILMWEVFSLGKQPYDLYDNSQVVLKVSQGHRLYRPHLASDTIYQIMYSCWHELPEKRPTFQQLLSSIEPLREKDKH

[4] = target: T3, Inhibitor of nuclear factor kappa-B kinase subunit beta (Homo sapiens) (UniProt O14920); assay: Inhibition of human IKKb at 500 nM by HotSpot assay relative to control
T3 sequence (whole entry): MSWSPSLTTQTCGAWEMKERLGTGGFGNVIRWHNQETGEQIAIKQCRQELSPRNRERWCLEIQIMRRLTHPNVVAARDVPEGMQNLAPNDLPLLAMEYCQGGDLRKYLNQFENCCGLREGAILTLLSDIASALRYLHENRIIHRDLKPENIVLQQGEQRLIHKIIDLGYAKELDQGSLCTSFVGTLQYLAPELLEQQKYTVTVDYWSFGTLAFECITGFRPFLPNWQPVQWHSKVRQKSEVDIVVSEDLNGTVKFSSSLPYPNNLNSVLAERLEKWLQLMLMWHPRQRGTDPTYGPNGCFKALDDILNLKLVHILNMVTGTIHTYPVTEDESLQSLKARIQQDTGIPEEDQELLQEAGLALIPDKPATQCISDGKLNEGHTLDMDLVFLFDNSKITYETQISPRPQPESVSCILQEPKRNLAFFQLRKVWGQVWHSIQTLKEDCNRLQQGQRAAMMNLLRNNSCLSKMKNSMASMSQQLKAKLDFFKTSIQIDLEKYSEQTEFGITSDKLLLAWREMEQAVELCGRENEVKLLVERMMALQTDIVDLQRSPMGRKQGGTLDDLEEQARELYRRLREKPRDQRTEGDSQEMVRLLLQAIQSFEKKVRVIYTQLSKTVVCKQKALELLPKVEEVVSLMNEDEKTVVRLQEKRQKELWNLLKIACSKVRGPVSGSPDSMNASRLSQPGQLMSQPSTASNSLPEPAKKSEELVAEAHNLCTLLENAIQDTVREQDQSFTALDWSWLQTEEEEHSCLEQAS

[5] = target: Serine/threonine-protein kinase Nek7 (Homo sapiens) (UniProt Q8TDX7); assay: Inhibition of human NEK7 at 1.82 nM by HotSpot assay relative to control
Serine/threonine-protein kinase Nek7 (Homo sapiens), sequence (Q8TDX7 whole entry, looked up, canonical isoform): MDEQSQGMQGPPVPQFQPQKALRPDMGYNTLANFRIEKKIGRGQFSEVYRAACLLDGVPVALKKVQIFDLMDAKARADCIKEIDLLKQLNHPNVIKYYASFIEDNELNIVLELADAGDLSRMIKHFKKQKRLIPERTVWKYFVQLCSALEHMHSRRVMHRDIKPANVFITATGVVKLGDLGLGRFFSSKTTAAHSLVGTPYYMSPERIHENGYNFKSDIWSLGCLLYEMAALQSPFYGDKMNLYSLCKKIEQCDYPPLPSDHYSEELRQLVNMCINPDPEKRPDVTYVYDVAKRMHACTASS

[6] = target: Casein kinase I isoform alpha (Homo sapiens) (UniProt P48729); assay: Inhibition of human CK1a1 at 1.82 nM by HotSpot assay relative to control
Casein kinase I isoform alpha (Homo sapiens), sequence (P48729 2-337 limits assumed): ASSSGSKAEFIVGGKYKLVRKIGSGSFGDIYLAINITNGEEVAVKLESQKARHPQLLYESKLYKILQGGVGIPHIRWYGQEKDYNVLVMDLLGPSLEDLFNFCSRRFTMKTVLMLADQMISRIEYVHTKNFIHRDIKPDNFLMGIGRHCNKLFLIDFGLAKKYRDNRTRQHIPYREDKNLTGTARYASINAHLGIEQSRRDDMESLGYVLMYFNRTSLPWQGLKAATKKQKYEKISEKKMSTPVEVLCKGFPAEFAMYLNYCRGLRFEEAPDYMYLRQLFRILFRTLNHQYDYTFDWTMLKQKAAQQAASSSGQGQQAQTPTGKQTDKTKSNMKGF

[7] = target: Tyrosine-protein kinase HCK (Homo sapiens) (UniProt P08631); assay: Inhibition of human HCK at 1.82 nM by HotSpot assay relative to control
Tyrosine-protein kinase HCK (Homo sapiens), sequence (P08631 2-526 limits assumed): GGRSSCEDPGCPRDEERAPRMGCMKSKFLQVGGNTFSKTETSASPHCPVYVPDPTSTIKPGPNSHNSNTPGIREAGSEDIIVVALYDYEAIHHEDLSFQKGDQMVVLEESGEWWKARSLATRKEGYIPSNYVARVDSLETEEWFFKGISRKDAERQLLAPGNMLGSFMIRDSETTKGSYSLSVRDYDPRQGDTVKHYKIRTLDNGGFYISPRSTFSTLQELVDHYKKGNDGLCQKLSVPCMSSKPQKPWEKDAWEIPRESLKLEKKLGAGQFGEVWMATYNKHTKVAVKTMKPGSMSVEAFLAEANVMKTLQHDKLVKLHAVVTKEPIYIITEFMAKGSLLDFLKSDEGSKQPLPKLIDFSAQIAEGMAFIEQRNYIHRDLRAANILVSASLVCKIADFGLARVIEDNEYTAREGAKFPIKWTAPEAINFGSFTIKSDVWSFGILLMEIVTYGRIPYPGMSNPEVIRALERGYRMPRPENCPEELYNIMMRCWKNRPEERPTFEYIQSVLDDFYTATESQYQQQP

[8] = target: Activated CDC42 kinase 1 (Homo sapiens) (UniProt Q07912); assay: Inhibition of human ACK1 at 1.82 nM by HotSpot assay relative to control
Activated CDC42 kinase 1 (Homo sapiens), sequence (Q07912 whole entry, looked up): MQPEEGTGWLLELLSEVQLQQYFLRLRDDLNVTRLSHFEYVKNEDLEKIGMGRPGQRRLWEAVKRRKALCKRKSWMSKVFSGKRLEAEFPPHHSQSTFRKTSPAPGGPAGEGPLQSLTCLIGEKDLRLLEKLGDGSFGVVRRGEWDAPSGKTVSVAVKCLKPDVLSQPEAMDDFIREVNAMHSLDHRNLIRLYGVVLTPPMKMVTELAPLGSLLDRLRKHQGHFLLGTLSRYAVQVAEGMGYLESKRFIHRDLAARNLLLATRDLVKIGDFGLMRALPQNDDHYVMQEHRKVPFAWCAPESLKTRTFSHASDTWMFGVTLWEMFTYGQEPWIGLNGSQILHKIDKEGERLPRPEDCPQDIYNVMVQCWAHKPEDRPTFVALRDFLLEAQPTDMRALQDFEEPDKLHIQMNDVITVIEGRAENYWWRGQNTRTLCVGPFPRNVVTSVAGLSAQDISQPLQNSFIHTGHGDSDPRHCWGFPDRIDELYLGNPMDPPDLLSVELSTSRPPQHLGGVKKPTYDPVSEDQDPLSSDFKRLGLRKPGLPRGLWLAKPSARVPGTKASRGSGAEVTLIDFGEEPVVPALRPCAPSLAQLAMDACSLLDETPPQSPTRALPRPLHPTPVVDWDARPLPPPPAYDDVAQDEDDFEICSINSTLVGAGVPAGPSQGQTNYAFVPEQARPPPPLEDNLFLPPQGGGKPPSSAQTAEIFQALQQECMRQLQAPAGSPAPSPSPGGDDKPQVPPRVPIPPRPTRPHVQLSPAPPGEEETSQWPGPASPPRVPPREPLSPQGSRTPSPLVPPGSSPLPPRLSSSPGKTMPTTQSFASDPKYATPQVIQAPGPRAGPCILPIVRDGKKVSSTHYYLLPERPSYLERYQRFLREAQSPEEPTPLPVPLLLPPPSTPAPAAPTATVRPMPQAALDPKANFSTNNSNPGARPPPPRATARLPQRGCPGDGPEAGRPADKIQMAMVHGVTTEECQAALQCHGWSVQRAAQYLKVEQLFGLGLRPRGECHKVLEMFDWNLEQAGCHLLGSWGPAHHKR

Homeodomain-interacting protein kinase 2 (Homo sapiens), sequence (Q9H2X6 whole entry, looked up): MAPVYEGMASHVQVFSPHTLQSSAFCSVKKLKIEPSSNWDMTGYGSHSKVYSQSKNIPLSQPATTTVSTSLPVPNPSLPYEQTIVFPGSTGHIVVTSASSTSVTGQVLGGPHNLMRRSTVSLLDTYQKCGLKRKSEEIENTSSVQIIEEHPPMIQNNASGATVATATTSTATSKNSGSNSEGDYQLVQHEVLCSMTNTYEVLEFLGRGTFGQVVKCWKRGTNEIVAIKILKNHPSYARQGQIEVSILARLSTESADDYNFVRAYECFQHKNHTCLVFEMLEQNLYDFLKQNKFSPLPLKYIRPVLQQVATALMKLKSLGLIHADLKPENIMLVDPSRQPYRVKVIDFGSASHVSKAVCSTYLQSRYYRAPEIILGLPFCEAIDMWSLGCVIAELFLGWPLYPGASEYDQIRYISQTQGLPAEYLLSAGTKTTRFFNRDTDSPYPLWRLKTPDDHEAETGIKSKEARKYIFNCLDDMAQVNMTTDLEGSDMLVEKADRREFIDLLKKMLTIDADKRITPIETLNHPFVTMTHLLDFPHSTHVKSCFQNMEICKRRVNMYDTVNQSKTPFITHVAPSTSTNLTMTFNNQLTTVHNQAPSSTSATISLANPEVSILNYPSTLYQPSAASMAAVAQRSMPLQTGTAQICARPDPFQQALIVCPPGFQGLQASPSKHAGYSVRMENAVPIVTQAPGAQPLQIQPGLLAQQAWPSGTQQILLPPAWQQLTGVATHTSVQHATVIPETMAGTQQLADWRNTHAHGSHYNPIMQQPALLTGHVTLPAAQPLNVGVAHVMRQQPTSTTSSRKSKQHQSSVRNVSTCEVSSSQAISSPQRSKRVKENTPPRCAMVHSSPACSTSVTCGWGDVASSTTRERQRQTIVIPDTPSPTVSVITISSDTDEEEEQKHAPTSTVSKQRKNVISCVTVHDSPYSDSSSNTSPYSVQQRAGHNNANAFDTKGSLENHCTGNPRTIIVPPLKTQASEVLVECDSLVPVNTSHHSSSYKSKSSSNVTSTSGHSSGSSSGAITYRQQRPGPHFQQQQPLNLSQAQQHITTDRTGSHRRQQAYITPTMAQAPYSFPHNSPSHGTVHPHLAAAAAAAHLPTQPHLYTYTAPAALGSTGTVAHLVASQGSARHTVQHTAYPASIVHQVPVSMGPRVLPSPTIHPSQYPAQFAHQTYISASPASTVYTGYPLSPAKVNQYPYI

inhibition [1]: -0.98% | inhibition [2]: -0.54% | inhibition [3]: -2.96%
Compound: C[C@]1(O)C[C@@H](c2nc(-c3ccc4ccc(-c5ccccc5)nc4c3)c3c(N)nccn32)C1

Compound: Oc1n[nH]c2nnc(-c3c(-c4ccccc4)nn4ccccc34)cc12
inhibition [4]: -0.37%

inhibition [5]: -3.98% | inhibition [6]: -1.84% | inhibition [7]: 9.36% | inhibition [8]: 3.55%
Compound: C[C@@]1(C(=O)Nc2ccc(F)nc2)CCCN1c1nc(Nc2cc(C3CC3)n[nH]2)c2cccn2n1
